This is an account of results in patent US12612360B2 (Sanofi, priority 2020, dated 2026).

This assay deals with T1, ERα (Homo sapiens, UniProt P03372).
T1 construct: host or cells: MCF7
T1 sequence (P03372 1-595): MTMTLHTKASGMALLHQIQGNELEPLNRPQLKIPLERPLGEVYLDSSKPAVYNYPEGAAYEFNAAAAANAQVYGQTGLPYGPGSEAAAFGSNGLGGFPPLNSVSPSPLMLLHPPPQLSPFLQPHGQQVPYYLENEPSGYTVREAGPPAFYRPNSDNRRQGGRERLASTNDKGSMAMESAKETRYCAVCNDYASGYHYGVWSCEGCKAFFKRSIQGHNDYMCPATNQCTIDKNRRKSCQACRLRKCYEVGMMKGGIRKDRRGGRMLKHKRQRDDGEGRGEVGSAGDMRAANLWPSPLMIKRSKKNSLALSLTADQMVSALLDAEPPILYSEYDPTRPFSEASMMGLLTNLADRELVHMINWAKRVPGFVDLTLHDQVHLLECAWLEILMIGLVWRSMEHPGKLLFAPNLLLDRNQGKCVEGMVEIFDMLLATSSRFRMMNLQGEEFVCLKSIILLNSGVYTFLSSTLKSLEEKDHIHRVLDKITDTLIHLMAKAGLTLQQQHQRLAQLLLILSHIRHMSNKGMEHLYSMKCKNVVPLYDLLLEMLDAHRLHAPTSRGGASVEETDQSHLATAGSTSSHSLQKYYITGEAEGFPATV
Put plainly: Estrogen receptor degradation activity: breast cancer cell ERα in cell western assay (MCF7 cells). Type of assay: cell-based. The following applies: for % Degradation At 0.3 μM: 4 hours, relative to fulvestrant 0.1 μM positive control; for DC50: 4 hours post compound addition, concentration which degrades 50% of the estrogen receptor, read-out: Degradation IC50. In short, it runs like this:
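In-cell western readout: ERα immunofluorescence (Alexa 488) normalised to DNA signal (Syto-64) after formalin fixation. Compounds dosed for 4 h on MCF7 cells in stripped-serum, phenol-red-free medium over nine 1:5 steps, 0.3 to […] final; fulvestrant 0.1 μM control. IC50 in nM for 50% ERα degradation.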

On to `Cc1cc(F)ccc1C1=C(c2c(F)cc(C=C3CN(CCCF)C3)cc2F)c2ccc(C(=O)O)cc2CCC1` [Example 68], for which the “% Degradation At 0.3 μM” value came to 96% and the DC50 was determined as 0.3 nM.

Regarding `Cc1ccc(C2=C(c3ccc(C=C4CN(CCCF)C4)c(F)c3)c3ccc(C(=O)O)cc3CCC2)c(F)c1` [Example 69, 9-(3-fluoro-4-((1-(3-fluoropropyl)azetidin-3-ylidene)methyl)phenyl)-8-(2-fluoro-4-methylphenyl)-6,7-dihydro-5H-benzo[7]annulene-3-carboxylic acid], the “% Degradation At 0.3 μM” value was 94% and the DC50 worked out at 0.5 nM.

`Cc1ccc(C2=C(c3ccc(C=C4CN(CCCF)C4)cc3)c3ccc(C(=O)O)cc3CCC2)c(C(F)(F)F)c1` [Example 70, 9-(4-((1-(3-fluoropropyl)azetidin-3-ylidene)methyl)phenyl)-8-(4-methyl-2-(trifluoromethyl)phenyl)-6,7-dihydro-5H-benzo[7]annulene-3-carboxylic acid]: the “% Degradation At 0.3 μM” value is on record as 101% and the DC50 worked out at 0.2 nM.

For `Cc1cc(C2=C(c3ccc(Cl)cc3Cl)CCCc3cc(C(=O)O)ccc32)cc(F)c1C=C1CN(CCCF)C1.Cl` [Example 71, 8-(2,4-dichlorophenyl)-9-(3-fluoro-4-((1-(3-fluoropropyl)azetidin-3-ylidene)methyl)-5-methylphenyl)-6,7-dihydro-5H-benzo[7]annulene-3-carboxylic acid hydrochloride], the “% Degradation At 0.3 μM” value worked out at 101% and the DC50 amounted to 0.2 nM.

With `Cc1c(Cl)cccc1C1=C(c2ccc(C=C3CN(CCCF)C3)cc2)c2ccc(C(=O)O)cc2CCC1` [Example 72, 8-(3-chloro-2-methylphenyl)-9-(4-((1-(3-fluoropropyl)azetidin-3-ylidene)methyl)phenyl)-6,7-dihydro-5H-benzo[7]annulene-3-carboxylic acid], the “% Degradation At 0.3 μM” value was found to be 97% and the DC50 was found to be 0.3 nM.

Consider `O=C(O)c1ccc2c(c1)CCCC(c1ccc(Cl)cc1Cl)=C2c1c(F)cc(C=C2CN(CCCF)C2)cc1F` [Example 73, 8-(2,4-dichlorophenyl)-9-(2,6-difluoro-4-((1-(3-fluoropropyl)azetidin-3-ylidene)methyl)phenyl)-6,7-dihydro-5H-benzo[7]annulene-3-carboxylic acid], for which the “% Degradation At 0.3 μM” value was found to be 98% and the DC50 was 0.3 nM.

`Cc1c(C=C2CN(CCCF)C2)ccc(C2=C(c3ccc(Cl)cc3Cl)CCCc3cc(C(=O)O)ccc32)c1F.Cl` [Example 74, 8-(2,4-dichlorophenyl)-9-(2-fluoro-4-((1-(3-fluoropropyl)azetidin-3-ylidene)methyl)-3-methylphenyl)-6,7-dihydro-5H-benzo[7]annulene-3-carboxylic acid hydrochloride]: the “% Degradation At 0.3 μM” value came to 92% and the DC50 came to 0.5 nM.

On to `COc1ccc(C2=C(c3ccc(C=C4CN(CCCF)C4)cc3)c3ccc(C(=O)O)cc3CCC2)c(Cl)c1` [Example 75, 8-(2-chloro-4-methoxyphenyl)-9-(4-((1-(3-fluoropropyl)azetidin-3-ylidene)methyl)phenyl)-6,7-dihydro-5H-benzo[7]annulene-3-carboxylic acid], for which the “% Degradation At 0.3 μM” value is 92% and the DC50 turned out to be 1.1 nM.

Consider `Cc1cccc(C2=C(c3ccc(C=C4CN(CCCF)C4)cc3)c3ccc(C(=O)O)cc3CCC2)c1Cl` [Example 76, 8-(2-chloro-3-methylphenyl)-9-(4-((1-(3-fluoropropyl)azetidin-3-ylidene)methyl)phenyl)-6,7-dihydro-5H-benzo[7]annulene-3-carboxylic acid], for which the “% Degradation At 0.3 μM” value turned out to be 94% and the DC50 amounted to 0.5 nM.

`Cc1ccc(C2=C(c3ccc(C=C4CN(CCCF)C4)cc3)c3ccc(C(=O)O)cc3CCC2)c(C)c1` [Example 77, 8-(2,4-dimethylphenyl)-9-(4-((1-(3-fluoropropyl)azetidin-3-ylidene)methyl)phenyl)-6,7-dihydro-5H-benzo[7]annulene-3-carboxylic acid]: the “% Degradation At 0.3 μM” value came out at 92% and the DC50 was determined as 0.4 nM.

For `O=C(O)c1ccc2c(c1)CCCC(c1cccc(F)c1Cl)=C2c1ccc(C=C2CN(CCCF)C2)cc1` [Example 78, 8-(2-chloro-3-fluorophenyl)-9-(4-((1-(3-fluoropropyl)azetidin-3-ylidene)methyl)phenyl)-6,7-dihydro-5H-benzo[7]annulene-3-carboxylic acid], the “% Degradation At 0.3 μM” value was 93% and the DC50 came to 0.6 nM.

Regarding `O=C(O)c1ccc2c(c1)CCCC(c1ccc(F)cc1Cl)=C2c1ccc(C=C2CN(CCCF)C2)cc1` [Example 79, 8-(2-chloro-4-fluorophenyl)-9-(4-((1-(3-fluoropropyl)azetidin-3-ylidene)methyl)phenyl)-6,7-dihydro-5H-benzo[7]annulene-3-carboxylic acid], the “% Degradation At 0.3 μM” value is given as 97% and the DC50 was 0.4 nM.

With `Cl.O=C(O)c1ccc2c(c1)CCCC(c1ccc(Cl)cc1Cl)=C2c1ccc(C=C2CN(CCCF)C2)c(F)c1F` [Example 80, 8-(2,4-dichlorophenyl)-9-(2,3-difluoro-4-((1-(3-fluoropropyl)azetidin-3-ylidene)methyl)phenyl)-6,7-dihydro-5H-benzo[7]annulene-3-carboxylic acid hydrochloride], the “% Degradation At 0.3 μM” value is recorded as 98% and the DC50 is 0.6 nM.

For `Cc1c(C2=C(c3ccc(C=C4CN(CCCF)C4)cc3)c3ccc(C(=O)O)cc3CCC2)ccc(Cl)c1F` [Example 81, 8-(4-chloro-3-fluoro-2-methylphenyl)-9-(4-((1-(3-fluoropropyl)azetidin-3-ylidene)methyl)phenyl)-6,7-dihydro-5H-benzo[7]annulene-3-carboxylic acid], the “% Degradation At 0.3 μM” value is listed as 98% and the DC50 was 0.4 nM.

Regarding `Cc1c(Cl)ccc(C2=C(c3ccc(C=C4CN(CCCF)C4)cc3)c3ccc(C(=O)O)cc3CCC2)c1C` [Example 82, 8-(4-chloro-2,3-dimethylphenyl)-9-(4-((1-(3-fluoropropyl)azetidin-3-ylidene)methyl)phenyl)-6,7-dihydro-5H-benzo[7]annulene-3-carboxylic acid], the “% Degradation At 0.3 μM” value is 90% and the DC50 came out at 0.5 nM.

For `Cc1cc(Cl)cc(C)c1C1=C(c2ccc(C=C3CN(CCCF)C3)cc2)c2ccc(C(=O)O)cc2CCC1` [Example 83, 8-(4-chloro-2,6-dimethylphenyl)-9-(4-((1-(3-fluoropropyl)azetidin-3-ylidene)methyl)phenyl)-6,7-dihydro-5H-benzo[7]annulene-3-carboxylic acid], the “% Degradation At 0.3 μM” value is on record as 93% and the DC50 was 0.4 nM.

For the molecule `Cc1cc(C#N)ccc1C1=C(c2ccc(C=C3CN(CCCF)C3)cc2)c2ccc(C(=O)O)cc2CCC1` [Example 84, 8-(4-cyano-2-methylphenyl)-9-(4-((1-(3-fluoropropyl)azetidin-3-ylidene)methyl)phenyl)-6,7-dihydro-5H-benzo[7]annulene-3-carboxylic acid], the “% Degradation At 0.3 μM” value is on record as 92% and the DC50 amounted to 2.1 nM.

Regarding `Cc1c(F)cccc1C1=C(c2ccc(C=C3CN(CCCF)C3)cc2)c2ccc(C(=O)O)cc2CCC1` [Example 85, 8-(3-fluoro-2-methylphenyl)-9-(4-((1-(3-fluoropropyl)azetidin-3-ylidene)methyl)phenyl)-6,7-dihydro-5H-benzo[7]annulene-3-carboxylic acid], the “% Degradation At 0.3 μM” value came to 94% and the DC50 is 0.2 nM.

For the molecule `CCc1ccccc1C1=C(c2ccc(C=C3CN(CCCF)C3)cc2)c2ccc(C(=O)O)cc2CCC1` [Example 86, 8-(2-ethylphenyl)-9-(4-((1-(3-fluoropropyl)azetidin-3-ylidene)methyl)phenyl)-6,7-dihydro-5H-benzo[7]annulene-3-carboxylic acid], the “% Degradation At 0.3 μM” value is listed as 92% and the DC50 stood at 0.2 nM.

`Cc1c(F)ccc(C2=C(c3ccc(C=C4CN(CCCF)C4)cc3)c3ccc(C(=O)O)cc3CCC2)c1C` [Example 87, 8-(4-fluoro-2,3-dimethylphenyl)-9-(4-((1-(3-fluoropropyl)azetidin-3-ylidene)methyl)phenyl)-6,7-dihydro-5H-benzo[7]annulene-3-carboxylic acid]: the “% Degradation At 0.3 μM” value was 94% and the DC50 amounted to 0.4 nM.

Take `Cc1cc(Cl)ccc1C1=C(c2ccc(C=C3CN(CCCF)C3)cc2)c2ccc(C(=O)O)cc2CCC1` [Example 89, 8-(4-chloro-2-methylphenyl)-9-(4-((1-(3-fluoropropyl)azetidin-3-ylidene)methyl)phenyl)-6,7-dihydro-5H-benzo[7]annulene-3-carboxylic acid]: the “% Degradation At 0.3 μM” value is listed as 98% and the DC50 was 0.2 nM.

As to `Cc1cc(F)cc(C)c1C1=C(c2ccc(C=C3CN(CCCF)C3)cc2)c2ccc(C(=O)O)cc2CCC1` [Example 90, 8-(4-fluoro-2,6-dimethylphenyl)-9-(4-((1-(3-fluoropropyl)azetidin-3-ylidene)methyl)phenyl)-6,7-dihydro-5H-benzo[7]annulene-3-carboxylic acid], the “% Degradation At 0.3 μM” value worked out at 93% and the DC50 worked out at 0.2 nM.
